Experimental data published in ChEMBL document CHEMBL5512597, “Triazole hybrid compounds: A new frontier in malaria treatment” (Eur J Med Chem, 2023).
Values after ≈ are worked out from the molar mass of the structure shown.

Columns and labels:
Plasmodium falciparum [1] = assay: Antimalarial activity against CQ-resistant Plasmodium falciparum K1; format: functional, organism-based
Plasmodium falciparum [2] = assay: Antimalarial activity against Plasmodium falciparum 3D7 at asexual erythrocytic stage assessed as parasite growth inhibition measured after 24 hrs by [3H]-hypoxanthine incorporation assay; format: functional, organism-based
Plasmodium falciparum [3] = assay: Antimalarial activity against Plasmodium falciparum; format: functional, organism-based
Plasmodium falciparum [4] = assay: Antimalarial activity against Plasmodium falciparum assessed as parasite growth inhibition incubated for 36 to 40 hrs by JSB staining based analysis; format: functional, organism-based
[5] = Cytotoxicity against human erythrocytes; format: toxicity, cell-based, Erythrocyte
Plasmodium falciparum [6] = assay: Antimalarial activity against CQ-resistant Plasmodium falciparum Dd2; format: functional, organism-based
Plasmodium falciparum [7] = assay: Antimalarial activity against Plasmodium falciparum 3D7 infected in A+ human erythrocytes assessed as reduction in parasite growth incubated for 72 hrs by SYBR Green I staining based analysis; format: functional, organism-based; conditions: 3D7, Erythrocyte
Plasmodium falciparum [8] = assay: Antimalarial activity against Plasmodium falciparum Dd2 infected in A+ human erythrocytes assessed as reduction in parasite growth incubated for 72 hrs by SYBR Green I staining based analysis; format: functional, organism-based; conditions: Dd2, Erythrocyte
Plasmodium falciparum [9] = assay: Antimalarial activity against Plasmodium falciparum K1 infected in A+ human erythrocytes assessed as reduction in parasite growth incubated for 72 hrs by SYBR Green I staining based analysis; format: functional, organism-based; conditions: K1, Erythrocyte
Plasmodium falciparum [10] = assay: Antiplasmodial activity against CQ-sensitive Plasmodium falciparum NF54; format: functional, organism-based

For `C=CCn1cc(COc2ccc([C@@H]3[C@H](Oc4ccccc4)C(=O)N3c3ccccc3)cc2)nn1`, the IC50 (Plasmodium falciparum [1]) was 6190 nM.
In the case of `Cc1cc(C)nc(NS(=O)(=O)c2ccc(-n3cc(COc4cc5oc(=O)cc(C)c5cc4Cl)nn3)cc2)n1`, the IC50 (Plasmodium falciparum [2]) is reported as 18100 nM.
For `Cc1cc(C)nc(NS(=O)(=O)c2ccc(-n3cc(COc4cc(=O)oc5ccccc45)nn3)cc2)n1`, the IC50 (Plasmodium falciparum [2]) was over 79400 nM.
`CC1=C(C(=O)Nc2ccc(C(F)(F)F)cc2)C(c2ccc(OCc3cn(Cc4ccccc4)nn3)cc2)n2c(nc3ccccc32)N1` (centres undefined) showed an IC50 (Plasmodium falciparum [3]) of 2860 nM.
In the case of `CC1=C(C(=O)Nc2ccccc2)C(c2ccc(OCc3cn(Cc4ccccc4)nn3)cc2)n2ncnc2N1` (centres undefined), the IC50 (Plasmodium falciparum [3]) is reported as 3120 nM.
`Cc1ccc(COc2ccc(-n3cc(COc4ccc5ccc(=O)oc5c4)nn3)cc2)cc1` gave an IC50 (Plasmodium falciparum [4]) of 0.38 µg/mL (≈ 0.865 µM).
`Cc1ccc(N2C(=O)[C@@H](Oc3ccccc3)[C@H]2c2ccc(OCc3cn(Cc4ccccc4)nn3)cc2)cc1` showed an IC50 (Plasmodium falciparum [1]) of 15500 nM.
In the case of `CC1=C(C(=O)Nc2ccc(Cl)cc2)C(c2ccc(OCc3cn(Cc4ccccc4)nn3)cc2)n2c(nc3ccccc32)N1` (centres undefined), the IC50 (Plasmodium falciparum [3]) is reported as 1690 nM.
`Cc1c(-c2ccccc2)c2ccc(OCc3cn(-c4ccc(S(N)(=O)=O)cc4)nn3)cc2oc1=O` gave an IC50 (Plasmodium falciparum [2]) of 3680 nM.
For `COc1ccc(COC(=O)Cn2cc(CSc3ccc(Br)cc3)nn2)cc1`, the IC50 (Plasmodium falciparum [3]) was 178 nM.
Molecule `Cc1ccccc1COc1ccc(-n2cc(COc3cc(=O)oc4ccccc34)nn2)cc1` has an IC50 (Plasmodium falciparum [4]) of 0.53 µg/mL (≈ 1.21 µM).
For `CC1=C(C(=O)Nc2ccc(C)cc2)C(c2ccc(OCc3cn(Cc4ccccc4)nn3)cc2)n2ncnc2N1` (centres undefined), the IC50 (Plasmodium falciparum [3]) was 1840 nM.
With `O=[N+]([O-])c1ccccc1Cn1cc(CO)nn1` the CC50 [5] was 75.5 µg/mL (≈ 322 µM) and the IC50 (Plasmodium falciparum [6]) was 0.65 µg/mL (≈ 2.78 µM).
In the case of `CC1=C(C(=O)Nc2ccc(C)cc2)C(c2ccc(OCc3cn(Cc4ccccc4)nn3)cc2)n2c(nc3ccccc32)N1` (centres undefined), the IC50 (Plasmodium falciparum [3]) is reported as 1920 nM.
For `CC1=C(C(=O)Nc2ccc(F)cc2)C(c2ccc(OCc3cn(Cc4ccccc4)nn3)cc2)n2ncnc2N1` (centres undefined), the IC50 (Plasmodium falciparum [3]) was 4360 nM.
`O=C1[C@@H](Oc2ccc(Cl)cc2Cl)[C@@H](c2ccc(OCc3cn(Cc4ccccc4)nn3)cc2)N1c1ccc(OCc2cn(Cc3ccccc3)nn2)cc1` gave an IC50 (Plasmodium falciparum [1]) of under 970 nM.
`CC1=C(C(=O)Nc2cccc(Cl)c2)C(c2ccc(OCc3cn(Cc4ccccc4)nn3)cc2)n2c(nc3ccccc32)N1` (centres undefined) showed an IC50 (Plasmodium falciparum [3]) of 3120 nM.
With `Cc1nc(-c2ccccc2)c(-c2ccccc2)c2cc(-c3cn(CCOC(=O)CCC(=O)O[C@@H]4O[C@@H]5O[C@]6(C)O[C@]57[C@@H](CC[C@@H](C)[C@@H]7C[C@H]6O)[C@H]4C)nn3)ccc12` the EC50 (Plasmodium falciparum [7]) was 646 nM, the EC50 (Plasmodium falciparum [8]) was 444 nM and the EC50 (Plasmodium falciparum [9]) was 256 nM.
In the case of `C[C@H]1[C@@H](OCc2cn(-c3ccnc4cc(Cl)ccc34)nn2)O[C@@H]2O[C@@]3(C)CC[C@H]4[C@H](C)CC[C@@H]1[C@@]24OO3`, the EC50 (Plasmodium falciparum [7]) is reported as 9 nM.
`O=[N+]([O-])c1ccc(Cn2cc(-c3ccccc3CBr)nn2)cc1` showed a CC50 [5] of over 100 µg/mL and an IC50 (Plasmodium falciparum [6]) of over 100 µg/mL.
For `Cc1nc(-c2ccccc2)c(-c2ccccc2)c2cc(-c3cn(CCOC(=O)CCC(=O)O[C@@H]4O[C@@H]5O[C@@]6(C)CC[C@H]7[C@H](C)CC[C@@H]([C@H]4C)[C@@]57OO6)nn3)ccc12`, the EC50 (Plasmodium falciparum [7]) was 5.3 nM, the EC50 (Plasmodium falciparum [8]) was 4.8 nM and the EC50 (Plasmodium falciparum [9]) was 3.3 nM.
In the case of `O=c1ccc2ccc(OCc3cn(-c4ccc(OCc5ccc([N+](=O)[O-])cc5)cc4)nn3)cc2o1`, the IC50 (Plasmodium falciparum [4]) is reported as 1.2 µg/mL (≈ 2.55 µM).
Molecule `OCc1cn(Cc2ccc(Cl)cc2)nn1` has a CC50 [5] of 88.6 µg/mL (≈ 396 µM) and an IC50 (Plasmodium falciparum [6]) of 22.1 µg/mL (≈ 98.9 µM).
For `CC1=C(C(=O)Nc2ccccc2Cl)C(c2ccc(OCc3cn(Cc4ccccc4)nn3)cc2)n2c(nc3ccccc32)N1` (centres undefined), the IC50 (Plasmodium falciparum [3]) was 2110 nM.
Molecule `NS(=O)(=O)c1ccc(-n2cc(COc3cc(=O)oc4ccccc34)nn2)cc1` has an IC50 (Plasmodium falciparum [2]) of 100000 nM.
For `CC1=C(C(=O)Nc2cccc(Cl)c2)C(c2ccc(OCc3cn(Cc4ccccc4)nn3)cc2)n2ncnc2N1` (centres undefined), the IC50 (Plasmodium falciparum [3]) was 2240 nM.
For `C[C@H]1[C@@H](OCCc2cn(-c3ccnc4cc(Cl)ccc34)nn2)O[C@@H]2O[C@@]3(C)CC[C@H]4[C@H](C)CC[C@@H]1[C@@]24OO3`, the EC50 (Plasmodium falciparum [7]) was 8.8 nM, the EC50 (Plasmodium falciparum [8]) was 4.5 nM and the EC50 (Plasmodium falciparum [9]) was 2 nM.
`Clc1ccc2c(-n3cc(-c4ccccn4)nn3)ccnc2c1` gave an IC50 (Plasmodium falciparum [10]) of 28000 nM.
`O=c1ccc2ccc(OCc3cn(-c4ccc(S(=O)(=O)N5CCOCC5)cc4)nn3)cc2o1` gave an IC50 (Plasmodium falciparum [2]) of over 85500 nM.
Molecule `O=c1cc(OCc2cn(-c3ccc(OCc4cccc([N+](=O)[O-])c4)cc3)nn2)c2ccccc2o1` has an IC50 (Plasmodium falciparum [4]) of 0.6 µg/mL (≈ 1.28 µM).
Work on `O=C1c2ccccc2C(=O)N1[C@H]1C(=O)N(c2ccc(OCc3cn(Cc4ccccc4)nn3)cc2)[C@@H]1c1ccc(OCc2cn(Cc3ccccc3)nn2)cc1` yielded an IC50 (Plasmodium falciparum [1]) of 1810 nM.
With `O=c1ccc2ccc(OCc3cn(-c4ccc(OCc5ccc(Br)cc5)cc4)nn3)cc2o1` the IC50 (Plasmodium falciparum [4]) was 0.54 µg/mL (≈ 1.07 µM).
`C[C@H]1[C@@H](OCCCCc2cn(-c3ccnc4cc(Cl)ccc34)nn2)O[C@@H]2O[C@@]3(C)CC[C@H]4[C@H](C)CC[C@@H]1[C@@]24OO3` gave an EC50 (Plasmodium falciparum [7]) of 8.4 nM, an EC50 (Plasmodium falciparum [8]) of 6.1 nM and an EC50 (Plasmodium falciparum [9]) of 3.7 nM.
